# Data reported in US20240009174A1, “METHODS FOR DISRUPTING MITOCHONDRIAL UNFOLDED PROTEIN RESPONSE” (Health Research, Inc., priority 2020, published 2024).
# What was measured:
# [1] = tested on: LNCaP and PC-3 cells; assay: mitoROS by flow cytometry using mitoSOX dye; type: cell-based
# Protocol: FIG. 6. Pharmacological inhibition of HSP60-ClpP interaction induces UPR^mt and PCa cell death. (A) Docking of DCEM1 into apical domain of HSP60. (B) LNCaP and PC-3 cells were treated with DCEM1 for 24 hours and HSP60-ClpP interaction was analyzed by co-immunoprecipitation assay. (C) LNCaP and PC-3 cells were treated with DCEM1 for 24 hours and mitoROS levels were analyzed by flow cytometry using mitoSOX dye. (D) LNCaP and PC-3 cells were treated with DCEM1 for 24 hours and poly-Ub protein levels were analyzed by western blotting. (E) LNCaP and PC-3 cells were treated with DCEM1 for 24 and 48 hours and apoptotic cell populations were analyzed by flow cytometry using Annexin V FITC/PI method as explained in materials and methods. In (E) top panel, the bars in each series from left to right are control, 5, 10, and 20, and in (E) bottom panel, the bars in each series from left to right are DMSO, 5, 10, and 20. (F) LNCaP and PC-3 cells were treated with DCEM1 for 24 and 48 hours and lysates were prepared and analyzed for DEVDase activity using specific peptide substrate. In (F), the bars in each series from left to right are DMSO, 5, 10, and 20. (G) LNCaP and PC-3 cells were pre-treated with SKQ1 followed by DCEM1 treatment and analyzed for cell viability by MTT assay. (H) LNCaP and PC-3 cells were treated with either DCEM1 or H2O2 (200 μM) for 24 hours and total DNA were isolated and analyzed for mtDNA damage as described in materials and methods.
# FIG. 7. […] (A) LNCaP and PC-3 cells were pre-treated with either rotenone or antimycin-A followed by DCEM1 treatment and mitochondrial ROS was analyzed as described in material and methods (data represented as fold change compared to control). In (A), the bars in each series from left to right are control, DCEM1, Rot+DCEM1, Anti A+DCEM1, Rot, and Anti A (B) ClpP protein was over-expressed in LNCaP and PC-3 cells followed by DCEM1 treatment and mitochondrial ROS was analyzed as described in material and methods (Data represented as fold change compared to control). […]
# [2] = tested on: LNCaP and PC-3 cells; assay: poly-Ub protein levels by western blotting; type: cell-based; settings: 24 hours
# Protocol: FIG. 6. Pharmacological inhibition of HSP60-ClpP interaction induces UPR^mt and PCa cell death. (A) Docking of DCEM1 into apical domain of HSP60. (B) LNCaP and PC-3 cells were treated with DCEM1 for 24 hours and HSP60-ClpP interaction was analyzed by co-immunoprecipitation assay. (C) LNCaP and PC-3 cells were treated with DCEM1 for 24 hours and mitoROS levels were analyzed by flow cytometry using mitoSOX dye. (D) LNCaP and PC-3 cells were treated with DCEM1 for 24 hours and poly-Ub protein levels were analyzed by western blotting. (E) LNCaP and PC-3 cells were treated with DCEM1 for 24 and 48 hours and apoptotic cell populations were analyzed by flow cytometry using Annexin V FITC/PI method as explained in materials and methods. In (E) top panel, the bars in each series from left to right are control, 5, 10, and 20, and in (E) bottom panel, the bars in each series from left to right are DMSO, 5, 10, and 20. (F) LNCaP and PC-3 cells were treated with DCEM1 for 24 and 48 hours and lysates were prepared and analyzed for DEVDase activity using specific peptide substrate. […] (G) LNCaP and PC-3 cells were pre-treated with SKQ1 followed by DCEM1 treatment and analyzed for cell viability by MTT assay. (H) LNCaP and PC-3 cells were treated with either DCEM1 or H2O2 (200 μM) for 24 hours and total DNA were isolated and analyzed for mtDNA damage as described in materials and methods. […]
# [3] = tested on: TKO PCa cells; assay: mitoROS, mitoMass and apoptosis in TKO PCa cells; type: cell-based, mouse; settings: data not shown
# Protocol: Identification of novel inhibitor of HSP60-ClpP interaction that disrupts UPR^mt function and induces PCa cell death. Having shown that two arms of UPR^mt, HSP60 chaperonin and ClpP protease interact and play critical role in PCa cell survival, an in silico analysis was performed and a small molecule library (developed by Enamine Ltd) was screened to identify drugs targeting the apical domain of HSP60 critical for its interaction with ClpP. 9 compounds (A-I) were identified and screened for their cell death inducing potential in PCa cells (data not shown). […] Colony forming ability of PCa cells was inhibited by DCEM1 treatment (data not shown).
# [4] = tested on: PC-3 cells; assay: Oxygen consumption rate (OCR); type: cell-based; settings: DCEM1 100 nM, 500 nM, 1 μM, 5 μM
# [5] = tested on: PC-3 cells; assay: Protein expression of nuclear encoded OXPHOS subunits; type: cell-based
# [6] = tested on: LNCaP and PC-3 cells; assay: AMPK and mTOR signaling pathways / autophagy activation; type: cell-based; settings: PCa cells
# Protocol: FIG. 7. Pharmacological inhibition of HSP60-ClpP interaction induces metabolic stress in PCa cells. (A) LNCaP and PC-3 cells were pre-treated with either rotenone or antimycin-A followed by DCEM1 treatment and mitochondrial ROS was analyzed as described in material and methods (data represented as fold change compared to control). In (A), the bars in each series from left to right are control, DCEM1, Rot+DCEM1, Anti A+DCEM1, Rot, and Anti A (B) ClpP protein was over-expressed in LNCaP and PC-3 cells followed by DCEM1 treatment and mitochondrial ROS was analyzed as described in material and methods (Data represented as fold change compared to control). In (B), the bars in each series from left to right are DMSO and DCEM1. (C) ClpP protein was over-expressed in LNCaP and PC-3 cells followed by DCEM1 treatment and level of poly-ubiquitinated protein was analyzed by western blotting. (D) ClpP protein was over-expressed in LNCaP and PC-3 cells followed by DCEM1 treatment and DEVDase activity was analyzed as described in material and methods (Data represented as fold change compared to control). In (D), the bars in each series from left to right are DMSO and DCEM1. (E) Mitochondrial membrane potential (mitoMP) was analyzed in LNCaP and PC-3 cells treated with DCEM1 as described in material and methods (Data represented as fold change compared to control). In (E), the bars in each series from left to right are DMSO, 5, and 10. (F) ATP level was analyzed in LNCaP and PC-3 cells treated with DCEM1 as described in material and methods (Data represented as fold change compared to control). In (F), the bars in each series from left to right are 0, 5, 10, and 20. (G) Oxygen consumption rate was analyzed in PC-3 cells treated with DCEM1 as described in material and methods and represented as basal and maximal respiration rate; Spare respiratory capacity and ATP production potential. […]
# Abrogation of HSP60-ClpP interaction by DCEM1 induces metabolic stress in PCa cells. […] Since ATP depletion/reduction induces autophagy, autophagy activation in PCa cells was analyzed in response to DCEM1 treatment.
smiles,measurement,setting,value
CCOc1cc(CNCc2nc3ccccc3[nH]2)ccc1OCc1cccs1 [DCEM1],DCEM1-induced mitoROS production and DEVDase activity with ClpP overexpression,[1]; ClpP over-expressed in LNCaP and PC-3 cells followed by DCEM1,inhibited
same,mitoROS levels,"[1]; LNCaP and PC-3 cells, 24 hours",mitoROS upregulation
same,DCEM1-induced mitoROS production with inhibition of Complex I or III,[1]; pre-treated with rotenone or antimycin-A followed by DCEM1,not attenuated
same,poly-Ub protein levels,[2],increased accumulation of poly-Ub proteins
same,mitoROS and mitoMass in TKO PCa cells,[3]; cells established from TKO mouse prostate tumor tissue,induced mitoROS and mitoMass
same,apoptotic cell death in TKO PCa cells,[3],induced robust apoptotic cell death
same,oxygen consumption rate (OCR),[4],reduction in oxygen consumption rate
same,nuclear encoded subunits of OXPHOS Complexes,[5],downregulation of nuclear encoded subunits of OXPHOS Complexes
same,ULK1 phosphorylation,[6],enhanced phosphorylation at serine 555 residue and decreased phosphorylation at serine 757 residue
same,mTOR signaling,[6],inhibited mTOR signaling
same,p-AMPKa levels and LC3B cleavage,[6],Robust increase
